Experimental data: US10654837B2, “Sulphamoylaryl derivatives and use thereof as medicaments for the treatment of liver fibrosis” (Janssen Pharmaceutica NV, priority 2017, dated 2020)

Target: T1, 5HTR2B (Homo sapiens, UniProt P41595)
T1 construct: host or cells: human Maverick/293 cells
Experiment: 5HTR2B antagonist activity, calcium mobilization assay in human Maverick/293 cells (serotonin as agonist)
Assay type: cell-based
Settings: intracellular calcium, emission 525 nm, read-out: Ca assay IC50
Procedure, shortened: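 Calcium mobilization read over 80 s at ex 485/em 525 nm after serotonin addition. Before that, 2 h serum-free starvation, 50 min dye loading at 37 °C, and 15-30 min antagonist exposure. IC50 from sigmoidal fit of peak % inhibition.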

T1 sequence (P41595 whole entry): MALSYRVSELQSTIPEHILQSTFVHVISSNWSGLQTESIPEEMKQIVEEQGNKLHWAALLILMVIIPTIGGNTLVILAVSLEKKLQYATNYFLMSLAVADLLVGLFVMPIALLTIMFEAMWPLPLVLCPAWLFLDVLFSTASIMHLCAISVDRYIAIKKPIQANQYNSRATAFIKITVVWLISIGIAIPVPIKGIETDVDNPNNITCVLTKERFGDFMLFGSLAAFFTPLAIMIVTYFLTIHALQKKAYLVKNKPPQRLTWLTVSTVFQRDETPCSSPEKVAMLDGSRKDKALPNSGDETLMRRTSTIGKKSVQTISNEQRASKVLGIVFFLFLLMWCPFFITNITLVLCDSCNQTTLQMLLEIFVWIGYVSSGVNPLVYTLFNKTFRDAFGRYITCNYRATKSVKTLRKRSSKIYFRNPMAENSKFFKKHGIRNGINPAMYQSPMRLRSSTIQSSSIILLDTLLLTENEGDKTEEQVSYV

| IC50 [nM] | SMILES |
| --- | --- |
| 0.3 | COc1ccc(S(=O)(=O)N[C@H]2CCNC2)cc1C(=O)Nc1ccc(F)cc1 [Compound 178, (S)—N-(4-Fluorophenyl)-2-methoxy-5-(N-(pyrrolidin-3-yl)sulfamoyl)benzamide] |
| 12 | COc1ccc(S(=O)(=O)N[C@H]2CCOC2)cc1C(=O)Nc1cc(Cl)cc(C#N)c1 [Compound 94, (S)—N-(3-Chloro-5-cyanophenyl)-2-methoxy-5-(N-(tetrahydrofuran-3-yl)sulfamoyl)benzamide] |
| 4.5 | COc1ccc(S(=O)(=O)NC(C)CO)cc1C(=O)Nc1ccc(F)c(C)c1 (stereo not shown) [Compound 10, N-(4-Fluoro-3-methylphenyl)-5-(N-(1-hydroxypropan-2-yl)sulfamoyl)-2-methoxybenzamide] |
| 0.2 | COc1ccc(S(=O)(=O)N[C@H]2CCOC2)cc1C(=O)Nc1ccc(F)cc1Cl [Compound 66, (S)—N-(2-Chloro-4-fluorophenyl)-2-methoxy-5-(N-(tetrahydrofuran-3-yl)sulfamoyl)benzamide] |
